Changes are numbered by the printed parent chain.
How the values were obtained:
[1] = target: T1, EcoFtsEX (Escherichia coli, UniProt P0A9R7); test: complex stabilisation against precipitation (SDS-PAGE); format: binding; conditions: 2 mM nucleotide, pH 8.0
T1 construct: gene ftsE; full-length, His6-tagged (pTD68 his6-FtsEX), expressed in E. coli BL21(DE3) pLysS, DDM-solubilised, in peptidiscs; two FtsE and two FtsX; with Cell division protein FtsX
T1 sequence (P0A9R7 1-222): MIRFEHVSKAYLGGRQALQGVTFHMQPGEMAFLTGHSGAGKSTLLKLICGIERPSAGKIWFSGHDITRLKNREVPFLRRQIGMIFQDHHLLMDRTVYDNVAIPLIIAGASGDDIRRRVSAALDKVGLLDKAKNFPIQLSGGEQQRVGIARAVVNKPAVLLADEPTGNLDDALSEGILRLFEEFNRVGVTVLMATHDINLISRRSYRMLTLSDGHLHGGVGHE
T1 sequence (P0AC30 1-352 partner): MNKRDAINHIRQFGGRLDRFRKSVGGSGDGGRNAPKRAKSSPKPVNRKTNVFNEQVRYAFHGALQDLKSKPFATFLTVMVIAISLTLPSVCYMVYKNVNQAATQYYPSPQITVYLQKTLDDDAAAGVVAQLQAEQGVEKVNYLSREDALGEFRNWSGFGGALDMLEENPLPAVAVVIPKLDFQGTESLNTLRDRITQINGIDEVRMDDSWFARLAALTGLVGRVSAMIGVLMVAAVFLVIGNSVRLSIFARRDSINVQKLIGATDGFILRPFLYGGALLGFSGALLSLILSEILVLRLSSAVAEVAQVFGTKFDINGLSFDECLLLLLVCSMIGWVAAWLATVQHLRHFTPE

[2] = target: T2, BsFtsEX (Bacillus subtilis, UniProt O34814); test: complex stabilisation (SEC yield, FtsE:FtsX stoichiometry on SDS-PAGE); conditions: 2 mM ATP, pH 8.0; indirect evidence of binding
T2 construct: gene ftsE; His6-FtsEX (pTD68) expressed in E. coli BL21(DE3) pLysS, DDM-solubilised, peptidiscs, SEC; with Cell division protein FtsX
T2 sequence (O34814 1-228): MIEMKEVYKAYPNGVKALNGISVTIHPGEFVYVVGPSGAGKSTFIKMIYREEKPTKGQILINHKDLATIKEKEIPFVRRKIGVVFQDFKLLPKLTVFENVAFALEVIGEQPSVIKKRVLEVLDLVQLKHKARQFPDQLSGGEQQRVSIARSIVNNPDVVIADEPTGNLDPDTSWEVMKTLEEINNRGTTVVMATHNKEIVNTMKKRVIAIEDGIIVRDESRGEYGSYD
T2 sequence (O34876 1-296 partner): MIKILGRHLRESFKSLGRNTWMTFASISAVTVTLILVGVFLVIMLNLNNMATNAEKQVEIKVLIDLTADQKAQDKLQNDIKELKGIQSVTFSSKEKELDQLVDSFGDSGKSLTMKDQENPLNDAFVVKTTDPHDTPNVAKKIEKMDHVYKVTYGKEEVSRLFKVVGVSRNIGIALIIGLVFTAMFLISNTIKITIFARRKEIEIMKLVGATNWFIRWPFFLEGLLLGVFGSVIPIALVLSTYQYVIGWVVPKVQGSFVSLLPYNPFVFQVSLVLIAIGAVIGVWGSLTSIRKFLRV

[3] = target: T3, SpFtsEX (Streptococcus pneumoniae, UniProt A0A0H2ZM82); test: as above; conditions: 2 mM ATP, pH 8.0; indirect evidence of binding
T3 construct: gene ftsE; His6-FtsEX (pTD68) expressed in E. coli BL21(DE3) pLysS, DDM-solubilised, peptidiscs, SEC; with Cell division protein FtsX
T3 sequence (A0A0H2ZM82 1-230): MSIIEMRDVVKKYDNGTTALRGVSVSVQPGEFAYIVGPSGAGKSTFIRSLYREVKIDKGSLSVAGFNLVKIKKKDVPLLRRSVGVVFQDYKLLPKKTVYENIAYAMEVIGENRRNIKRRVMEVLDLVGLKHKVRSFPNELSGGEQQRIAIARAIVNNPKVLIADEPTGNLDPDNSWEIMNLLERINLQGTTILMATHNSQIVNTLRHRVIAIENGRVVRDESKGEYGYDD
T3 sequence (Q04LE4 1-308 partner): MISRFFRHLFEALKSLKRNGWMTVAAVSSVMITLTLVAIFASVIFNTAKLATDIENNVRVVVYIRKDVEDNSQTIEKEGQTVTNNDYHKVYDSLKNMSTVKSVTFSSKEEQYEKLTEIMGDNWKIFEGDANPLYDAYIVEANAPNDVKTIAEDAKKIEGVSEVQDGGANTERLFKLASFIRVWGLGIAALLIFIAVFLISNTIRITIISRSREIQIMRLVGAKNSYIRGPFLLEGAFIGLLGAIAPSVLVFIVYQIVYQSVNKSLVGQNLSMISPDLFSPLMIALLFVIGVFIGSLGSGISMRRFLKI

[4] = target: T4, PaeFtsEX (Pseudomonas aeruginosa, UniProt Q9I6C0); test: as above; conditions: 2 mM ATP, pH 8.0; indirect evidence of binding
T4 construct: gene ftsE; His6-FtsEX (pTD68) expressed in E. coli BL21(DE3) pLysS, DDM-solubilised, peptidiscs, SEC; with Cell division protein FtsX
T4 sequence (Q9I6C0 1-223): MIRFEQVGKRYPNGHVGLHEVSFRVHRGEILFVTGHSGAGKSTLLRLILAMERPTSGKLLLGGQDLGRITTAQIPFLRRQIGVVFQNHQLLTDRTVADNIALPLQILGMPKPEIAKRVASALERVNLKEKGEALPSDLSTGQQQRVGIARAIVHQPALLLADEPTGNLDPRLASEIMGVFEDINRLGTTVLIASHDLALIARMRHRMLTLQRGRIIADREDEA
T4 sequence (Q9I6B9 1-335 partner): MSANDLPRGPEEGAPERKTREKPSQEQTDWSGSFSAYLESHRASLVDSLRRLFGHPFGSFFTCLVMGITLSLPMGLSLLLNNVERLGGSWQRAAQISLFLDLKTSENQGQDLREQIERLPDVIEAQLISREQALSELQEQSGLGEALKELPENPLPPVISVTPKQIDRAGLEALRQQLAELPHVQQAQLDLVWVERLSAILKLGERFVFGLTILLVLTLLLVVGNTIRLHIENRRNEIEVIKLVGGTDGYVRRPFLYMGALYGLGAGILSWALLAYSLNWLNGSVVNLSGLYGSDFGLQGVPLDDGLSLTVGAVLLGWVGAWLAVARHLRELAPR

[5] = target: T5, EcoFtsEX/EnvC (Escherichia coli, UniProt P0A9R7, E163Q); test: cryo-EM structure, […] Å; format: binding; conditions: 2 mM ATP-Mg2+, peptidiscs; hydrolysis-deficient mutant, two bound nucleotides at FtsE
T5 construct: gene ftsE; full-length His6-FtsEX in peptidiscs plus EnvC delta34 (signal region removed, His6-SUMO tag cut), both expressed in E. coli BL21(DE3) pLysS; with Cell division protein FtsX
T5 sequence (P0A9R7 1-222 E163Q): T1 sequence (P0A9R7 1-222) with E163Q
T5 sequence (P0AC30 1-352 partner): T1 sequence (P0AC30 1-352 partner)
T5 sequence (P37690 35-419 partner): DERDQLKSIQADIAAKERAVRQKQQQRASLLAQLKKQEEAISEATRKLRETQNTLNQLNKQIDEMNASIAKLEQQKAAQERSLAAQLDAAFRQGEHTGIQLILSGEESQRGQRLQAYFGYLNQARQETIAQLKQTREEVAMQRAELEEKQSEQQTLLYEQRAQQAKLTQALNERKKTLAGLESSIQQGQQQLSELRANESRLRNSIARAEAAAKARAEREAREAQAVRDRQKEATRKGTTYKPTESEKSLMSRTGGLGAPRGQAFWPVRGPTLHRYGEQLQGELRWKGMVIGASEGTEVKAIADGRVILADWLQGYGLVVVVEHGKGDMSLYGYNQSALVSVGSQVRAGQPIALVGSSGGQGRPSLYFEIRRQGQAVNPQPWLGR

[6] = target: T1, EcoFtsEX; test: cryo-EM structure, […] Å; format: binding; conditions: 3 mM ATPγS, 2 mM Mg2+, peptidiscs; two bound nucleotides at FtsE

Nc1ncnc2c1ncn2[C@@H]1O[C@H](COP(=O)(O)OP(=O)(O)O)[C@@H](O)[C@H]1O [ADP]
complex stabilisation against precipitation (SDS-PAGE) [1]: ATP analogues, including ATPγS, AMP-PNP, and ADP, also exhibited similar stabilizing effects

Nc1ncnc2c1ncn2[C@@H]1O[C@H](COP(=O)(O)OP(=O)(O)NP(=O)(O)O)[C@@H](O)[C@H]1O [AMP-PNP]
complex stabilisation against precipitation (SDS-PAGE) [1]: ATP analogues, including ATPγS, AMP-PNP, and ADP, also exhibited similar stabilizing effects

Nc1ncnc2c1ncn2[C@@H]1O[C@H](COP(=O)(O)OP(=O)(O)OP(=O)(O)O)[C@@H](O)[C@H]1O [ATP]
complex stabilisation (SEC yield, FtsE:FtsX stoichiometry on SDS-PAGE) [2]: regardless of the bacterial species, ATP consistently enhanced the stability of the complexes | complex stabilisation (SEC yield, FtsE:FtsX stoichiometry on SDS-PAGE) [3]: regardless of the bacterial species, ATP consistently enhanced the stability of the complexes | complex stabilisation (SEC yield, FtsE:FtsX stoichiometry on SDS-PAGE) [4]: regardless of the bacterial species, ATP consistently enhanced the stability of the complexes | cryo-EM structure, 3.4 Å [5]: 8W6J (ATP-bound FtsE^E163QX/EnvC)

Nc1ncnc2c1ncn2[C@@H]1O[C@H](COP(=O)(O)OP(=O)(O)OP(O)(O)=S)[C@@H](O)[C@H]1O [ATPγS]
cryo-EM structure, 3.7 Å [6]: 8W6I (ATPγS bound FtsEX)

— article doi:10.1101/2024.01.16.575974v2, “Structural insights into peptidoglycan hydrolysis by the FtsEX system in Escherichia coli during cell division” (biorxiv, 2025)
